We go through 1 compound from paper PMC8890653, “Cell-penetrating peptides containing the progesterone receptor polyproline domain inhibits EGF signaling and cell proliferation in lung cancer cells” (PLoS ONE, 2022).

The assay concerns PC9-ER cells. Briefly: Cell viability (MTT) of Erlotinib-resistant cells. Conditions: Homo sapiens, PC-9/ER, 72 h, read-out: Inhibition of PC9-ER cell proliferation, Erlotinib alone.

As to `C#Cc1cccc(Nc2ncnc3cc(OCCOC)c(OCCOC)cc23)c1` [Erlotinib], the inhibition at 0.1 µM amounted to 8%.
